Organism: Rattus norvegicus
Assay: Open TG-GATES - Regimen: Daily Repeat
Type: toxicity, organism-based, Sprague-Dawley
Parameters: regimen Daily Repeat, gender Male, age 6 weeks
Details: in vivo, po, 300 mg/kg, […], route gavage, dose level High; for KIDNEY_L / KIDNEY_R / KIDNEY_TOTAL: tissue Kidney; for LIVER: tissue Liver; for A/G / ALP / ALT / AST / BUN / CRE / Ca / Cl / DBIL / GLC / IP / K / LDH / Na / PL / RALB / TBIL / TC / TG / TP / gamma-GTP: tissue Plasma

Question: How did the Lym (tissue Blood, time 28 day) turn out when CCc1oc2ccccc2c1C(=O)c1cc(I)c(O)c(I)c1 [BENZIODARONE] was run?
Answer: 78.6%

Question: What about the MCH (tissue Blood, time 28 day) of the same compound?
Answer: 19.6 pg

Question: And the MCHC (tissue Blood, time 28 day)?
Answer: 33.9%

Question: And the MCV (tissue Blood, time 28 day)?
Answer: 57.8 fL

Question: What about the Mono (tissue Blood, time 28 day) of the same compound?
Answer: 7.4%

Question: And the Neu (tissue Blood, time 28 day)?
Answer: 12.2%

Question: And the PT (tissue Blood, time 28 day)?
Answer: 12.3 s

Question: What about the Plat (tissue Blood, time 28 day) of the same compound?
Answer: 108.9 x10_4/uL

Question: What about the RBC (tissue Blood, time 28 day) of the same compound?
Answer: 768.2 x10_4/ul

Question: And the Ret (tissue Blood, time 28 day)?
Answer: 2.8%

Question: And the WBC (tissue Blood, time 28 day)?
Answer: 122.3 x10_2/uL

Question: And the KIDNEY_L (time 7 day)?
Answer: 1.2 g

Question: What about the KIDNEY_R (time 7 day) of the same compound?
Answer: 1.2 g

Question: What about the KIDNEY_TOTAL (time 7 day) of the same compound?
Answer: 2.4 g

Question: And the KIDNEY_L (time 14 day)?
Answer: 1.2 g

Question: What about the KIDNEY_R (time 14 day) of the same compound?
Answer: 1.3 g

Question: What about the KIDNEY_TOTAL (time 14 day) of the same compound?
Answer: 2.5 g

Question: And the KIDNEY_L (time 28 day)?
Answer: 1.4 g

Question: What about the KIDNEY_R (time 28 day) of the same compound?
Answer: 1.4 g

Question: And the KIDNEY_TOTAL (time 28 day)?
Answer: 2.8 g

Question: What about the LIVER (time 7 day) of the same compound?
Answer: 17.5 g

Question: What about the LIVER (time 14 day) of the same compound?
Answer: 19.2 g

Question: What about the LIVER (time 28 day) of the same compound?
Answer: 21.4 g

Question: And the A/G (time 7 day)?
Answer: 2

Question: And the ALP (time 7 day)?
Answer: 932.2 IU/L

Question: What about the ALT (time 7 day) of the same compound?
Answer: 35 IU/L

Question: What about the AST (time 7 day) of the same compound?
Answer: 59.4 IU/L

Question: And the BUN (time 7 day)?
Answer: 19.2 mg/dL

Question: What about the CRE (time 7 day) of the same compound?
Answer: 0.6 mg/dL

Question: And the Ca (time 7 day)?
Answer: 10.9 mg/dL

Question: What about the Cl (time 7 day) of the same compound?
Answer: 104 meq/L

Question: And the DBIL (time 7 day)?
Answer: 0.03 mg/dL

Question: What about the GLC (time 7 day) of the same compound?
Answer: 190.8 mg/dL

Question: And the IP (time 7 day)?
Answer: 8 mg/dL

Question: And the K (time 7 day)?
Answer: 4.1 meq/L

Question: And the LDH (time 7 day)?
Answer: 99 IU/L

Question: And the Na (time 7 day)?
Answer: 140 meq/L

Question: What about the PL (time 7 day) of the same compound?
Answer: 133.2 mg/dL

Question: And the RALB (time 7 day)?
Answer: 3.9 g/dL

Question: What about the TBIL (time 7 day) of the same compound?
Answer: 0.2 mg/dL

Question: And the TC (time 7 day)?
Answer: 72.8 mg/dL

Question: And the TG (time 7 day)?
Answer: 47 mg/dL

Question: What about the TP (time 7 day) of the same compound?
Answer: 5.9 g/dL

Question: And the gamma-GTP (time 7 day)?
Answer: 1.6 IU/L

Question: And the A/G (time 14 day)?
Answer: 1.7

Question: And the ALP (time 14 day)?
Answer: 877 IU/L

Question: And the ALT (time 14 day)?
Answer: 36 IU/L

Question: What about the AST (time 14 day) of the same compound?
Answer: 63.2 IU/L

Question: What about the BUN (time 14 day) of the same compound?
Answer: 21.4 mg/dL

Question: And the CRE (time 14 day)?
Answer: 0.6 mg/dL

Question: And the Ca (time 14 day)?
Answer: 10.6 mg/dL

Question: What about the Cl (time 14 day) of the same compound?
Answer: 104.4 meq/L

Question: What about the DBIL (time 14 day) of the same compound?
Answer: 0.038 mg/dL

Question: What about the GLC (time 14 day) of the same compound?
Answer: 195.8 mg/dL

Question: And the IP (time 14 day)?
Answer: 6.7 mg/dL

Question: And the K (time 14 day)?
Answer: 4.1 meq/L

Question: What about the LDH (time 14 day) of the same compound?
Answer: 95.8 IU/L

Question: And the Na (time 14 day)?
Answer: 141.4 meq/L

Question: And the PL (time 14 day)?
Answer: 123.2 mg/dL

Question: And the RALB (time 14 day)?
Answer: 3.9 g/dL

Question: And the TBIL (time 14 day)?
Answer: 0.2 mg/dL

Question: What about the TC (time 14 day) of the same compound?
Answer: 64.2 mg/dL

Question: And the TG (time 14 day)?
Answer: 48.2 mg/dL

Question: And the TP (time 14 day)?
Answer: 6.2 g/dL

Question: And the gamma-GTP (time 14 day)?
Answer: 1.6 IU/L

Question: What about the A/G (time 28 day) of the same compound?
Answer: 1.8

Question: And the ALP (time 28 day)?
Answer: 700.6 IU/L

Question: And the ALT (time 28 day)?
Answer: 39.8 IU/L

Question: And the AST (time 28 day)?
Answer: 63.4 IU/L

Question: And the BUN (time 28 day)?
Answer: 23 mg/dL

Question: And the CRE (time 28 day)?
Answer: 0.7 mg/dL

Question: And the Ca (time 28 day)?
Answer: 10.5 mg/dL

Question: What about the Cl (time 28 day) of the same compound?
Answer: 106.4 meq/L

Question: What about the DBIL (time 28 day) of the same compound?
Answer: 0.022 mg/dL

Question: What about the GLC (time 28 day) of the same compound?
Answer: 192.6 mg/dL

Question: And the IP (time 28 day)?
Answer: 6.4 mg/dL

Question: What about the K (time 28 day) of the same compound?
Answer: 4.1 meq/L

Question: And the LDH (time 28 day)?
Answer: 106.2 IU/L

Question: And the Na (time 28 day)?
Answer: 140.8 meq/L

Question: What about the PL (time 28 day) of the same compound?
Answer: 133 mg/dL

Question: And the RALB (time 28 day)?
Answer: 4 g/dL

Question: And the TBIL (time 28 day)?
Answer: 0.2 mg/dL

Question: And the TC (time 28 day)?
Answer: 72 mg/dL

Question: And the TG (time 28 day)?
Answer: 43.6 mg/dL

Question: What about the TP (time 28 day) of the same compound?
Answer: 6.2 g/dL

Question: And the gamma-GTP (time 28 day)?
Answer: 1.6 IU/L

Source: ChEMBL document CHEMBL3885861, “Open TG-GATES”
